Measured values reported in publication PMC12647645, “Structural interactions of BWC0977 with Klebsiella pneumoniae topoisomerase IV and biochemical basis of its broad-spectrum activity” (Communications Biology, 2025).
In brackets after ≈: the same amount, converted by molar mass.

What was measured:
A. baumannii ATCC 19606 = experiment: MIC broth microdilution; assay type: cell-based; conditions: Acinetobacter baumannii, ATCC19606
[1] = molecular target: P. aeruginosa topoisomerase IV (Pseudomonas aeruginosa, UniProt Q9HUJ8+Q9HUK1); experiment: Topoisomerase IV decatenation assay, P. aeruginosa; assay type: biochemical
Chain of P. aeruginosa topoisomerase IV (Q9HUK1 whole entry): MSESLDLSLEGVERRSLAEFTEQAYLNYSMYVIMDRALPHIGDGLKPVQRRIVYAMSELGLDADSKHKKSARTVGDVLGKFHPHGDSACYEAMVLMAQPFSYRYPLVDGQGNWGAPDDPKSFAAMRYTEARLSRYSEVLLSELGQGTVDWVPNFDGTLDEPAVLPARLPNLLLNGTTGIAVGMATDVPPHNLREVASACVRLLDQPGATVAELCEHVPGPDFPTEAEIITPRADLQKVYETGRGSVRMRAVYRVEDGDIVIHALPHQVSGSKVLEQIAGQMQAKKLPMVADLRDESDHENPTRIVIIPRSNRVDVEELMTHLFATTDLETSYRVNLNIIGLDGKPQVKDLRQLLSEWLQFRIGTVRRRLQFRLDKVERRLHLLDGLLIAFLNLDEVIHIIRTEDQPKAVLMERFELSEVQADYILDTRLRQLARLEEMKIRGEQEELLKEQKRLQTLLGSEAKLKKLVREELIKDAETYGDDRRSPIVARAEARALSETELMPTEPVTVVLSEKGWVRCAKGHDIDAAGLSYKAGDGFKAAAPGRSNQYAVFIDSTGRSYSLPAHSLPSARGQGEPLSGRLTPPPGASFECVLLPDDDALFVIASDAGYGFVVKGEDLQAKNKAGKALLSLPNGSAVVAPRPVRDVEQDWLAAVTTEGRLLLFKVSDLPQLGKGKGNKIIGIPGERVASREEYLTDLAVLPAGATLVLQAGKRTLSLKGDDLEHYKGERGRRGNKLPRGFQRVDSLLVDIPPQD
Chain of P. aeruginosa topoisomerase IV (Q9HUJ8 whole entry): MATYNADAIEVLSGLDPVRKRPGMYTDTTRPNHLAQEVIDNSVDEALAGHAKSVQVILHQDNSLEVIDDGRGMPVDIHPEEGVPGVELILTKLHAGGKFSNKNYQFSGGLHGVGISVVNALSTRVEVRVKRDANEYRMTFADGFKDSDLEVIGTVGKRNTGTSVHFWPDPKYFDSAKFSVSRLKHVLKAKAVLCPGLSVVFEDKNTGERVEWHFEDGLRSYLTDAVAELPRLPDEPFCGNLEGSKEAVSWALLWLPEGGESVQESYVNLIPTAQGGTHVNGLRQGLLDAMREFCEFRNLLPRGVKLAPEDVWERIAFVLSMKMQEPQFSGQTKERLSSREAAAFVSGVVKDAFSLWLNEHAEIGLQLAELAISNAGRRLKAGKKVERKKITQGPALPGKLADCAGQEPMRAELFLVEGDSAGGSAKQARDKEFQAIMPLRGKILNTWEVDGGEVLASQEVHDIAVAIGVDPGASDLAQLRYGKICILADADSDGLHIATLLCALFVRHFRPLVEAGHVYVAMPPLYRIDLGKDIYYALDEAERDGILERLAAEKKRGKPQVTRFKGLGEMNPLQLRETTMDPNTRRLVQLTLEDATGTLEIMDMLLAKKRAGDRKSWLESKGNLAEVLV
Experimental: Topoisomerase IV decatenation reactions were performed using 2.5 nM E. coli enzyme and 60 ng kinetoplast DNA (kDNA) in an assay buffer containing 50 mM HEPES-KOH (pH 7.6), 100 mM potassium glutamate, 10 mM magnesium acetate, 10 mM DTT, 1 mM ATP, and 50 μg/mL albumin. Assays with P. aeruginosa topoisomerase IV (3 nM) were conducted in a similar buffer but with 50 mM HEPES-KOH (pH 7.9), 100 mM potassium glutamate, 6 mM magnesium acetate, 6 mM DTT, 1 mM ATP, 2 mM spermidine, and 50 μg/mL albumin. For S. aureus topoisomerase IV assay, the reactions contained 4 nM enzyme in an assay buffer composed of 50 mM Tris-HCl (pH 7.5), 5 mM MgCl₂, 5 mM DTT, 1.5 mM ATP, 350 mM potassium glutamate, and 0.05 mg/mL albumin. The procedures followed were consistent with those used in the supercoiling assays. Decatenated minicircles were resolved on 0.8% agarose gels, while the kDNA substrate remained in the wells. Gels were stained with 0.8 μg/mL ethidium bromide solution for 10 min, followed by destaining. DNA bands were visualized using a gel documentation system, and compound inhibition analysis was carried out using the same procedures described for the supercoiling assays.

[2] = tested on: E. coli MG1655 GyrA WT, ParC R119K; experiment: microbe, parasite or virus in culture; assay type: cell-based; conditions: Escherichia coli
[3] = tested on: E. coli MG1655 GyrA D82N, ParC D79N; experiment: microbe, parasite or virus in culture; assay type: cell-based; conditions: Escherichia coli
[4] = tested on: E. coli MG1655 GyrA D82N, ParC WT; experiment: microbe, parasite or virus in culture; assay type: cell-based; conditions: Escherichia coli
E. coli = conditions: ref 8 (Flamm et al., 2017); cited from earlier work
[5] = tested on: E. coli MG1655 GyrA R121K, ParC WT; experiment: microbe, parasite or virus in culture; assay type: cell-based; conditions: Escherichia coli
Human topo IIα = Human topo IIα (Homo sapiens, UniProt P11388); experiment: Human topo IIα decatenation assay; assay type: biochemical; conditions: read-out: IC50 Human topo IIα decatenation
Chain of Human topo IIα (P11388 whole entry): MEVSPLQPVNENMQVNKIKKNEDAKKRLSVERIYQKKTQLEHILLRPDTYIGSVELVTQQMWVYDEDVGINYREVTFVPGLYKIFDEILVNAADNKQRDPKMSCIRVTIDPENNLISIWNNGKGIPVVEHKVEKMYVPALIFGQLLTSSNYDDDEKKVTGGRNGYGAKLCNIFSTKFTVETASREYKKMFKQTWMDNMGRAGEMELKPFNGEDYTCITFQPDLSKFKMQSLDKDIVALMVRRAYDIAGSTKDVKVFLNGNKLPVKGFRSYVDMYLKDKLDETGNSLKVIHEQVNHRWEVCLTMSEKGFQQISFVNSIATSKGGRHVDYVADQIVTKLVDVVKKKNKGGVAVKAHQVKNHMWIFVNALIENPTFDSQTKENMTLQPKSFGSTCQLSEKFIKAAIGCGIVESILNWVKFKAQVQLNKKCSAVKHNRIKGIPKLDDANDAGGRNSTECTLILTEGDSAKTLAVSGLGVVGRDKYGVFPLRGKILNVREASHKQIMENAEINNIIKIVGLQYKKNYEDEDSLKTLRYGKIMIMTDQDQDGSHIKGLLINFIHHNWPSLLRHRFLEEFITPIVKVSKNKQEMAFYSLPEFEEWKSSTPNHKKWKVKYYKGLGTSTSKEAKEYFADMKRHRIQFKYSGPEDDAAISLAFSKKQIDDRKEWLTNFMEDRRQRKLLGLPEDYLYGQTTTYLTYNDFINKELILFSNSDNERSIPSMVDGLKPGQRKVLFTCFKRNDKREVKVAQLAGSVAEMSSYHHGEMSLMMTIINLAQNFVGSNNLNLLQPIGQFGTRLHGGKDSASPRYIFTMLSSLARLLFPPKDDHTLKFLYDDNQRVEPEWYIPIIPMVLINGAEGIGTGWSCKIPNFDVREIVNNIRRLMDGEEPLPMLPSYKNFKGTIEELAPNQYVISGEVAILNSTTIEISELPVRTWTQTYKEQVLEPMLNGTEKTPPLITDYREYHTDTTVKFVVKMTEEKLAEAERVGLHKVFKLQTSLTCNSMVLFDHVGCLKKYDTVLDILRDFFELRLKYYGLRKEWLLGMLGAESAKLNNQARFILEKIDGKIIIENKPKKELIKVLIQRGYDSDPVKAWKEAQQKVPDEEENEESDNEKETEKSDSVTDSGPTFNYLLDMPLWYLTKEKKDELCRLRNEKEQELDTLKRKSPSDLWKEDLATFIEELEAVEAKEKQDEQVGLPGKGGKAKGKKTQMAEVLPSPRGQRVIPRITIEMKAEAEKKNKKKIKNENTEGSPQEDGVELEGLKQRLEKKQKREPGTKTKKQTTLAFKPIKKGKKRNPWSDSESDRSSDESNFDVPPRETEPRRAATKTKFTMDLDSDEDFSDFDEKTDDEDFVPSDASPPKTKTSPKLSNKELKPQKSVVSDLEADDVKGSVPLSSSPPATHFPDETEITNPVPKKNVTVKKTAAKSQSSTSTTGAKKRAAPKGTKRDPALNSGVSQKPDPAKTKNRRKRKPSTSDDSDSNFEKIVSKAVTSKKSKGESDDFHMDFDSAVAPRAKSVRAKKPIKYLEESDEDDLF
Experimental: (§1) Human topo IIα (0.9 nM) and topo IIß (2.2 nM) decatenation assays were performed following the same protocol used for bacterial topoisomerase IV decatenation assays. The assay buffer was made of 50 mM Tris. HCl (pH 7.5), 125 mM NaCl, 10 mM MgCl2, 5 mM DTT, and 100 μg/mL albumin.

E. cloacae = conditions: ref 7 (Arends et al., 2019); cited from earlier work
[6] = tested on: E. coli MG1655 GyrA WT, ParC D79N; experiment: microbe, parasite or virus in culture; assay type: cell-based; conditions: Escherichia coli
S. aureus = conditions: ref 8 (Flamm et al., 2017); cited from earlier work
P. aeruginosa gyrase = P. aeruginosa gyrase (Pseudomonas aeruginosa, UniProt P48372+Q9I7C2); experiment: biochemical
E. coli ATCC 25922 [7] = experiment: Resistant mutant generation by serial passage method; assay type: cell-based; conditions: Escherichia coli, read-out: MIC, serial passage
K. pneumoniae = conditions: ref 7 (Arends et al., 2019); cited from earlier work
[8] = tested on: E. coli MG1655 GyrA M120A, ParC M118A; experiment: microbe, parasite or virus in culture; assay type: cell-based; conditions: Escherichia coli
K. pneumoniae ATCC 13883 = experiment: MIC broth microdilution; assay type: cell-based; conditions: Klebsiella pneumoniae, ATCC13883
E. faecalis ATCC 29212 = experiment: MIC broth microdilution; assay type: cell-based; conditions: Enterococcus faecalis, ATCC29212
E. coli ATCC 25922 [9] = experiment: MIC broth microdilution; assay type: cell-based; conditions: Escherichia coli, ATCC25922
K. pneumoniae BAA 2782 = experiment: microbe, parasite or virus in culture; assay type: cell-based; conditions: Klebsiella pneumoniae, BAA2782
[10] = tested on: E. coli MG1655 (GyrA WT, ParC WT); experiment: microbe, parasite or virus in culture; assay type: cell-based; conditions: Escherichia coli
A. baumannii BAA 2885 = experiment: microbe, parasite or virus in culture; assay type: cell-based; conditions: Acinetobacter baumannii, BAA2885
P. aeruginosa BAA 2794 = experiment: microbe, parasite or virus in culture; assay type: cell-based; conditions: Pseudomonas aeruginosa, BAA2794
E. coli BAA 2469 = experiment: microbe, parasite or virus in culture; assay type: cell-based; conditions: Escherichia coli, BAA2469
P. aeruginosa ATCC 27853 = experiment: MIC broth microdilution; assay type: cell-based; conditions: Pseudomonas aeruginosa, ATCC27853
E. coli BAA 2471 = experiment: microbe, parasite or virus in culture; assay type: cell-based; conditions: Escherichia coli, BAA2471
P. aeruginosa BAA 2797 = experiment: microbe, parasite or virus in culture; assay type: cell-based; conditions: Pseudomonas aeruginosa, BAA2797
E. faecalis = tested on: E. faecalis; design: method as in ref 7 (Arends et al., 2019); conditions: ref 7 (Arends et al., 2019); cited from earlier work
K. pneumoniae BAA 2784 = experiment: microbe, parasite or virus in culture; assay type: cell-based; conditions: Klebsiella pneumoniae, BAA2784
S. aureus ATCC 29213 = experiment: MIC broth microdilution; assay type: cell-based; conditions: Staphylococcus aureus, ATCC29213
K. pneumoniae KPNIH1 = experiment: microbe, parasite or virus in culture; assay type: cell-based; conditions: Klebsiella pneumoniae
Human topo IIß = Human topo IIß (Homo sapiens, UniProt Q02880); experiment: Human topo IIß decatenation assay; assay type: biochemical
Chain of Human topo IIß (Q02880 whole entry): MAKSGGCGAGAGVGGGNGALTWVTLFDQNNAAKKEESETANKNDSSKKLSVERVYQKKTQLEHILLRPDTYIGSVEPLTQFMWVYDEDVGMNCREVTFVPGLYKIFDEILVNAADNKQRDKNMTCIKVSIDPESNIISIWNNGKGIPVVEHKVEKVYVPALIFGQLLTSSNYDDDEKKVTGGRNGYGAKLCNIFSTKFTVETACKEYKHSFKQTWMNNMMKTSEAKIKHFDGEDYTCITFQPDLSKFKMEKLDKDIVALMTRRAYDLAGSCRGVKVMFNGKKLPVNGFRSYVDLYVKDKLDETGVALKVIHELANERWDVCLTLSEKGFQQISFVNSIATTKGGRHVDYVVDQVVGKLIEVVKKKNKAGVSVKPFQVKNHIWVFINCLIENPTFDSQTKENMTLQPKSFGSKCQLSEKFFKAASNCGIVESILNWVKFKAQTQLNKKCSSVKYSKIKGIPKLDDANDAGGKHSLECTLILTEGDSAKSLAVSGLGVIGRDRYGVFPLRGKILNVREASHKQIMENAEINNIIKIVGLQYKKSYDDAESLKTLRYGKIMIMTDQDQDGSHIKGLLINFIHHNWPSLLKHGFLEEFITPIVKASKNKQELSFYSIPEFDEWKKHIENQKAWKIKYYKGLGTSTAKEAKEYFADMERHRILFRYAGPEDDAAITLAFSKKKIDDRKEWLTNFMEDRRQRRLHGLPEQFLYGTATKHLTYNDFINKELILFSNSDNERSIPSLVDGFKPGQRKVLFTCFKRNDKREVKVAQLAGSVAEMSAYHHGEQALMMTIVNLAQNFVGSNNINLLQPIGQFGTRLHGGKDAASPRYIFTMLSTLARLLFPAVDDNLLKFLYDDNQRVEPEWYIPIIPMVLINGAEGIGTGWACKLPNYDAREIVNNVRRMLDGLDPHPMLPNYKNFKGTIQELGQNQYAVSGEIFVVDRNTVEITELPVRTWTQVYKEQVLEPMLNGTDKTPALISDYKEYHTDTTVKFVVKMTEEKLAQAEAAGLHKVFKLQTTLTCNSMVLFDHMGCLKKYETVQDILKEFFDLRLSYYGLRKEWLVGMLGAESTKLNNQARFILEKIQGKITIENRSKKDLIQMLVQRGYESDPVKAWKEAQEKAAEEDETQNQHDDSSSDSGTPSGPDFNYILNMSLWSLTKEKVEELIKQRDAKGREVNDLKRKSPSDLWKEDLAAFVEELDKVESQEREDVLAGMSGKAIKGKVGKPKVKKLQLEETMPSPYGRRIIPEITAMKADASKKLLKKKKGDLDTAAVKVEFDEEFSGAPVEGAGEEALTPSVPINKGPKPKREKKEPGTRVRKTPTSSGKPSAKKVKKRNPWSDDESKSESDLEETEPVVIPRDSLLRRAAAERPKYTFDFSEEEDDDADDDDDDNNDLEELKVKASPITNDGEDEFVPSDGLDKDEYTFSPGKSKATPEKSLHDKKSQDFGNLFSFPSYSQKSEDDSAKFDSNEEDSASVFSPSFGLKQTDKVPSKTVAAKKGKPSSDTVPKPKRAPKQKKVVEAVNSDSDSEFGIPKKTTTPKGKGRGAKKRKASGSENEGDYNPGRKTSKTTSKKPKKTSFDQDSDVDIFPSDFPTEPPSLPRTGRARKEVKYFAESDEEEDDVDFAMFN
Experimental: as §1

O=c1ccc2ncc(=O)n3c2n1C[C@H]3CN1CCC(NCc2cc3c(cn2)OCCC3)CC1 [Gepotidacin, reference compound]
MIC (A. baumannii ATCC 19606): 2 µg/mL (≈ 4.46 µM)
IC50 [1]: 1560 nM
MIC [2]: 0.42 µg/mL (≈ 0.936 µM)
MIC [3]: > 40 µg/mL
MIC [4]: 0.42 µg/mL (≈ 0.936 µM)
MIC90 against diverse global isolates (E. coli): 4 µg/mL (≈ 8.92 µM)
MIC [5]: 0.13 µg/mL (≈ 0.29 µM)
IC50 (Human topo IIα): > 200000 nM
MIC90 against diverse global isolates (E. cloacae): 16 µg/mL (≈ 35.7 µM)
MIC [6]: 0.83 µg/mL (≈ 1.85 µM)
MIC90 against diverse global isolates (S. aureus): 0.5 µg/mL (≈ 1.11 µM)
IC50 (P. aeruginosa gyrase): 350 nM
MIC (E. coli ATCC 25922 [7]; ATCC25922, 24 h): 0.25 µg/mL (≈ 0.557 µM)
MIC (E. coli ATCC 25922 [7]; ATCC25922, 288 h): 1.25 µg/mL (≈ 2.79 µM)
MIC90 against diverse global isolates (K. pneumoniae): 16 µg/mL (≈ 35.7 µM)
MIC [8]: 0.63 µg/mL (≈ 1.4 µM)
MIC (K. pneumoniae ATCC 13883): 1 µg/mL (≈ 2.23 µM)
MIC (E. faecalis ATCC 29212): 1 µg/mL (≈ 2.23 µM)
MIC (E. coli ATCC 25922 [9]): 0.5 µg/mL (≈ 1.11 µM)
MIC (K. pneumoniae BAA 2782): 1 µg/mL (≈ 2.23 µM)
MIC [10]: 0.47 µg/mL (≈ 1.05 µM)
MIC (A. baumannii BAA 2885): 2 µg/mL (≈ 4.46 µM)
MIC (P. aeruginosa BAA 2794): 0.5 µg/mL (≈ 1.11 µM)
MIC (E. coli BAA 2469): 0.5 µg/mL (≈ 1.11 µM)
MIC (P. aeruginosa ATCC 27853): 1 µg/mL (≈ 2.23 µM)
MIC (E. coli BAA 2471): 2 µg/mL (≈ 4.46 µM)
MIC (P. aeruginosa BAA 2797): 1 µg/mL (≈ 2.23 µM)
MIC90 against diverse global isolates (E. faecalis): 2 µg/mL (≈ 4.46 µM)
MIC (K. pneumoniae BAA 2784): 1 µg/mL (≈ 2.23 µM)
MIC (S. aureus ATCC 29213): 0.125 µg/mL (≈ 0.279 µM)
MIC (K. pneumoniae KPNIH1): 8 µg/mL (≈ 17.8 µM)
IC50 (Human topo IIß): > 200000 nM
